Measurements reported in US20240100006A1, “COMPOSITIONS AND METHODS USING AT LEAST ONE GLYCINE OR DERIVATIVE THEREOF AND AT LEAST ONE LARGE NEUTRAL AMINO ACID AND/OR CATIONIC AMINO ACID OR PRECURSOR THEREOF” (SOCIETE DES PRODUITS NESTLE S.A., priority 2020, published 2024).
“Also recorded” adds a separate entry of the source.

System: isolated mitochondria from skeletal muscle of zebrafish
Assay: Acute oxidative stress and mitochondrial high-resolution respirometry
Format: in vivo
Method: Following the stress, fish were divided into controls and treatment groups. […] Fish exposed to the glycine and glucose treatment were incubated in water containing the compound of interest for 2 h at 28° C. at the following doses: 50, 200, 450 μM (Sigma-Aldrich) for glycine; 500 μM and 5 mM (Sigma-Aldrich) for glucose; 450 μM for glycine, arginine and methionine (Sigma-Aldrich). […] After BCA quantification of protein concentration, 150 μg of crude extract were used for high-resolution respirometry quantification. […] Up to three 02k instruments ([…]) were used in parallel. Experiments were performed at 28° C. in modified MiR05 (110 mM sucrose, 0.5 mM EGTA, 3 mM MgCl2, 20 mM taurine, 10 mM KH2PO4, 20 mM HEPES and 0.1% BSA essentially fatty acid free). Respiration of isolated mitochondria was determined using substrate-uncoupler-inhibitor titration (SUIT) protocols (Pesta and […], Methods Mol Biol. 2012; 810:25-58) with modifications. […] CI respiration was calculated as the difference between total respiration (CI+CII) and the addition of CI inhibitor rotenone (0.5 μM); CII respiration was calculated as the difference between inhibited CI respiration and the addition of CII inhibitor malonic acid (5 mM). Total respiration (CI+CII, Tot resp) was assessed as the difference of the respiration in presence of all substrates and the total inhibition of CI and CII.

SMILES	mitochondrial respiration (O2 consumption; Complex I dependent respiration) after acute oxidative stress (adult AB zebrafish, 3 μM menadione 2 h at 28° C., then compound in water 2 h, glycine 50, 200, 450 μM, glucose 500 μM and 5 mM, FIG. 3, n=3 per condition)	Complex I dependent respiration (acute oxidative stress inducer, 3 μM in water for 2 h at 28° C., FIG. 3)
NCC(=O)O [glycine]	restores respiratory levels; also recorded: able to restore mitochondrial respiration	
CC1=CC(=O)c2ccccc2C1=O [menadione, Menadione, reference compound]		decreasing Complex I dependent respiration
